According to patent US20020177120A1, “ASSAYS FOR APOTOSIS MODULATORS” (priority 1999, published 2002):
Entries after “also recorded” stand apart in the source; their conditions may differ. *1 amine or outer side, *2 acyl side, *3 side chain or, on linkers, in order; H or OH if unused. Where a SMILES comes first, the peptide text is derived from it. Bridges are numbered along the chain shown (N, C = ends). Roman numbers before positions name the chains, in order. [ ]: non-standard residue; d: D form. Actinocin(9to1) = Cc1c2oc3c(C)ccc(C(=O)[*:1])c3nc-2c(C(=O)[*:2])c(N)c1=O; NMeV = CN[C@H](C(=O)O)C(C)C; Sar = CNCC(=O)O

Key:
[1] = test system: F9-1-13 cells; test: Cell-based FRET reporter assay in F9-1-13 (SgAT) cells; parameters: species or system human
Excerpt: Transfection of pcDNA3VH-SgAT and pcDNA3VH-SnAT into U-138 cells (using methods described above) resulted initially in few colonies and FRET signal was lost in many clones during expansion, however, from among the various subclones the F9-1-13 (pcDNA3VH-SgAT transfected; ATCC No. PTA-84) and F10-24-2 (pcDNA3-SnAT transfected) subclones were eventually expanded and shown to express stable FRET signals. As desired, the FRET signal expressed in F9-1-13 decreased in response to both staurosporin and anti-Fas antibody treatment of cells, while the FRET signal expressed by the F10-24-2 control cells, (i.e., lacking a caspase substrate domain), was unaffected following staurosporin or anti-Fas antibody treatment. […] F9-1-13 therefore appeared suitable for microtiter assays, and perhaps use in HTS assays for screening to identify and select modulators of apoptosis.
Studies were initiated to adapt the experimental cell-based FRET assay of EXAMPLE 5 to a format suitable for use in high-throughput screening. First, the assay was scaled down from a 24-well to a 96-well plate format. Cells from three different F9 parental cultures were plated in a black-sided 96-well plates (Costar #3904) at a density of 32,000 cells/well (˜1×10^5 cells/cm^2); allowed to adhere overnight; and then the media was replaced with either 100 μl fresh media containing inducer (5 μM staurosporin in 0.25% DMSO vehicle) or 100 μl containing only vehicle (0.25% DMSO). After an overnight incubation, fluorescence measurements were made to evaluate FRET signal changes. […] The assay therefore appeared to be adaptable to a 96-well format but it was not initially clear how signal might be improved to increase the signal-to-background ratio.
A 96-well FRET assay was evaluated for inter-assay well variability and inter-plate variability. Possible signal drift during measurement of the FRET fluorescence signal was evaluated using one of two different robotics-compatible rapid fluorescence plate readers (SpeedReader or Cytofluor II). After plating at an initial density of about 60,000 cells/well, and overnight culture F9-1-13 cells were treated with 5 μM staurosporin, or vehicle. After an overnight incubation in staurosporin (i.e., 16-24 hrs.), the plates were either washed, or not washed, and then assayed repeatedly over the next 1.5 hours using either of the plate readers. […] However, using the same assay conditions but with anti-Fas antibody as an inducer, different results were recorded. […] The basis for the observed differences in measuring devices is not clear, but may relate to the design of the light source and/or the sensitivity of the detection circuitry in the two different respective fluorescence readers as well as possible different means for optically or digitally subtracting background incident radiation.
Assay Confirmation: The following experiment was performed to validate the ability of the 96-well FRET assay to detect inhibitors of apoptosis: namely, F9-1-13 cells (n=5 wells) were treated with 50-100 μM Z-VAD-fmk (a broad spectrum caspase inhibitor) or vehicle (n=55) in randomized wells of a 96-well plate. All of these wells, and six additional positive control wells (i.e., lacking the inhibitor), were treated with 5 μM staurosporine in 0.25% DMSO vehicle. Six negative control wells were treated with vehicle only (0.25% DMSO). After overnight incubation, FRET signal changes were evaluated as described above.
Three alternatives to staurosporine induction were evaluated: serum withdrawal; c2-ceramide treatment; and induction via engagement of the CD95/Fas receptor with anti-Fas antibody. […] To increase the proportion of adherent cells, poly-D-lysine and 0.1% gelatin were evaluated in anti-Fas antibody treated F9-1-13 cells. […] Anti-Fas antibody was therefore chosen as a preferred inducer of apoptosis for high-throughput screening. […]

[2] = test system: caspase-3; test: Caspase-3 activity in F9-1-13 cells; assay type: cell-based, human; conditions: 75 μM, 16-24 hours
Procedure: Three alternatives to staurosporine induction were evaluated: serum withdrawal; c2-ceramide treatment; and induction via engagement of the CD95/Fas receptor with anti-Fas antibody. […] To increase the proportion of adherent cells, poly-D-lysine and 0.1% gelatin were evaluated in anti-Fas antibody treated F9-1-13 cells. […] Anti-Fas antibody was therefore chosen as a preferred inducer of apoptosis for high-throughput screening.
(§1) Caspase-3 Assay: Caspase-3 activity was assayed according to the following protocol. Cells plated and treated as above were washed in 1×PBS and lysed in 1×assay buffer (1 mM DTT, 1% Triton X-100, 0.5% Tween-20 in 1×PBS, pH 7.2). Lysates were combined with fluorogenic substrate, Ac-DEVD-AMC ([…]), ±inhibitor, Ac-DEVD-CHO (10 μM) (Bachem) in 1×assay buffer and incubated in the dark for 1 hr. at room temperature. Fluorescence readings were taken on the Cytofluor II plate reader (excitation 360 nm, emission 460 nm, 6 reads/well, gain 50).

[3] = test system: IMR-32 cells; test: Cell death / SYTO 13 cell survival in IMR-32 cells; assay type: cell-based; conditions: for programmed cell death as measured by Cell Death Detection: 4-8 hrs. treatment; for cells surviving (SYTO 13 assay): 50 μM etoposide
Procedure: (§2) Three CNS derived cell lines, IMR-32, NB41A3 and Neuro2A, were initially evaluated for growth and transfection characteristics, inducibility of apoptosis in a large percentage of cells, and a inducible apoptosis protease activity. […] The SYTO 13 cell survival assay and Cell Death Detection ELISA^PLUS (Materials and Methods) were used to optimize conditions for induction of apoptosis. IMR-32 cells were treated with Actinomycin D (ActD), cycloheximide (CHX), etoposide or staurosporin for 4-8 hrs.
SYTO13 Cell Viability Assays: Cells were seeded into 96-well plates, incubated overnight to adhere cells to the plastic, and then treated in quadruplicate for various times with extrinsically applied apoptosis-inducing agents, i.e., staurosporin or etoposide. Cell viability was determined using 5 μM SYTO 13 (Molecular Probes) and/or 5 μg/ml propidium iodide (PI, Molecular Probes). As controls, four wells of untreated cells were stained with SYTO 13 and PI, i.e., to measure the maximum signal (max), and four wells of untreated cells were stained with only PI, i.e., to measure the minimum signal (min). After 30 minutes of incubation at 37° C., fluorescence was assayed in plates using the Cytofluor II plate reader (Perseptive Biosystems) (excitation 485/20 nm; emission 530/30 nm; gain 50). Data was collected as relative fluorescence units (rfu) and averaged for six readings per well. Percent cell survival was calculated as 100×(rfutreatment−rfumin)/(rfumax−rfumin).
(§3) Etoposide-Induced Cell Death and Apoptotic DNA Fragmentation in IMR-32 Cells: Confluent IMR-32 cells were treated with 50 μM etoposide phosphate for 2, 8, 17 or 24 hrs. To evaluate apoptosis cells were either: i) stained with SYTO 13 and assayed for fluorescence using a Cytofluor II plate reader (excitation 485/20 nm, emission 530/30 nm), or ii) nucleosome-associated DNA fragments were detected using the Cell Death Detection ELISA^PLUS (Boehringer Mannheim) according to the manufacturer's instructions.

[4] = test system: F1-1-42 cells; test: Staurosporin-induced apoptosis in F1-1-42 SAT FRET reporter cells (FRET signal, western blot, caspase-3, morphology); assay type: cell-based, human; conditions: 100 μM added 30 min prior to staurosporin
Procedure: Detecting Intracellular Changes in a FRET Reporter in Cells Undergoing Apoptosis: Having established that SAT reporter protein synthesized in HEK293 cells could be cleaved ex vivo, i.e., in cell lysates by trypsin (above), an initial in vivo intracellular assay was conducted using the selected F1-1-42 clonal cell line and staurosporin to induce apoptosis. […] In these experiments the F1-1-42 cells were plated at a density of 4×10^5 cells/0.5 ml in each well of a 24-well microtiter plate. After overnight incubation, apoptosis was induced by adding staurosporin to a final concentration of 5 μM, and using vehicle (0.25% DMSO) as a negative control. Assays for caspase-3 were used to confirm that apoptosis was induced. […] Subsequent testing determined that significant changes in FRET signal were first detectable at about 8 hours after addition of staurosporin and were maximal by 24 hrs post-induction.

[5] = test system: caspase-3; test: Caspase-3 assay in IMR-32 cells; assay type: cell-based
Procedure: as §2, §1
Confluent IMR-32 cells were treated with 100 μM etoposide for 8 hrs. Cell lysates were collected and assayed for caspase-3 activity.

[6] = test system: caspase-3; test: Caspase-3 assay in SAT-reporter-transformed HEK293 cells after apoptosis inducers; assay type: cell-based, human; conditions: 100-200 μM etoposide, 4, 5, 8 or 24 hrs.
[7] = test system: IMR-32 cells; test: Microscopic examination of SYTO 13 / propidium iodide stained IMR-32 cells; assay type: cell-based; conditions: etoposide
Excerpt: as §2, with “IMR-32 cells were treated with Actinomycin D (ActD), cycloheximide (CHX), etoposide or staurosporin for 4-8 hrs.” left out
Morphologic Markers of Apoptosis: Microscopic markers of apoptosis include membrane blebbing, cell shrinkage (i.e., cytoplasmic condensation) and condensed (dense) chromosomal nuclear materials (i.e., pyknosis).

[8] = test system: IMR-32 cells; assay type: cell-based
Procedure: as §2
DNA Fragmentation ELISA: Apoptosis-induced inter-nucleosomal fragmentation of chromosomal DNA was quantified using the “Cell Death Detection ELISA^PLUS” (Boehringer Mannheim) according to the manufacturer's instructions. Briefly, ˜10^4 cells/well were plated on a poly-D-lysine-coated 96-well plate and treated for various periods of times with different apoptosis-inducing agents. The cells were lysed and the nuclei and membranes were pelleted. An aliquot of the cytoplasm-containing supernatant was then transferred to a streptavidin-coated microtiter plate and incubated with anti-histone-biotin and anti-DNA-peroxidase, resulting in the formation of “sandwich” antibody complexes, i.e., (anti-DNA-peroxidase)-(nucleosomal-DNA-containing-histone) -(anti-histone-biotin)-(streptavidin-microtiter plate). Unbound antibody was removed by washing. Peroxidase substrate (i.e., ABTS) was added and nucleosomal DNA complexes quantified by spectrophotometric analysis of the colored peroxidase reaction product.
as §3

[9] = 50 μM etoposide phosphate, 2, 8, 17 or 24 hrs.

Compound: CCCCCCCCCCCCC/C=C/[C@@H](O)[C@H](CO)NC(C)=O [c2-ceramide]
- FRET signal change ([1]; 75 μM, 16-24 hours): Only a small reduction in the FRET signal
- caspase-3 activity change [2]: Only a small reduction in the FRET signal and increase in caspase-3 activity

Compound: C[C@@H]1C[C@@H]([C@H](O)CC2CC(=O)NC(=O)C2)C(=O)[C@@H](C)C1 [CHX, cycloheximide]
- programmed cell death as measured by Cell Death Detection [3]: about 50%

Compound: Cc1c2oc3c(C)ccc(C(=O)N[C@@H]4C(=O)N[C@H](C(C)C)C(=O)N5CCC[C@H]5C(=O)N(C)CC(=O)N(C)[C@@H](C(C)C)C(=O)O[C@@H]4C)c3nc-2c(C(=O)N[C@@H]2C(=O)N[C@H](C(C)C)C(=O)N3CCC[C@H]3C(=O)N(C)CC(=O)N(C)[C@@H](C(C)C)C(=O)O[C@@H]2C)c(N)c1=O [ActD, Actinomycin D] (I: T[dV]P[Sar][NMeV] / II: T[dV]P[Sar][NMeV]; ester I:1-I:C, II:1-II:C; linker I:N-II:N via Actinocin(9to1))
- programmed cell death as measured by Cell Death Detection [3]: about 30%

Compound: Z-VAD-fmk
- mean FRET signal greater than in the staurosporine treatment group ([1]; 50-100 μM Z-VAD-fmk, 5 μM staurosporine, overnight, 96-well, P<0.001): ~65%

Compound: Z-DEVD-fmk
- effect on cleavage of SAT reporter in cell extracts (western blot) [4]: markedly less cleavage of SAT reporter
- effect on morphologic signs of apoptosis [4]: reduced morphologic signs of apoptosis
- effect on staurosporin-induced FRET signal change [4]: marked reduction in the FRET signal change

Compound: COc1cccc2c1C(=O)c1c(O)c3c(c(O)c1C2=O)C[C@@](O)(C(=O)CO)C[C@@H]3O[C@H]1C[C@H](N)[C@H](O)[C@H](C)O1 [Doxorubicin]
- increase in caspase-3 activity ([5]; 5 μM): did not produce any increase in caspase-3 activity

Compound: COc1cc([C@@H]2c3cc4c(cc3[C@@H](O[C@@H]3O[C@@H]5CO[C@@H](C)O[C@H]5[C@H](O)[C@H]3O)[C@H]3COC(=O)[C@H]23)OCO4)cc(OC)c1O [etoposide]
- change in caspase-3 activity [6]: no change was observed; also recorded: showed no effect
- attached cells obviously dead ([7]; 8 hrs.): none were obviously dead
- attached cells with condensed nuclei and membrane blebbing ([7]; 8 hrs.): about 50%
- attached cells clearly dead ([7]; 24 hrs.): about 15%
- attached cells showing apoptotic morphology ([7]; 24 hrs.): about 75%
- increase in caspase-3 activity ([5]; confluent IMR-32, 100 μM etoposide, 8 hr.): ~5 fold
- induction of caspase-3-like activity ([5]; etoposide 50-100 μM): ~10 fold
- cell survival by SYTO 13 staining in comparison with untreated controls [3, 9]: a decrease in cell survival over 24 hrs.
- cells surviving (SYTO 13 assay) ([3]; 8 hr): 55%
- cells surviving (SYTO 13 assay) ([3]; 24 hrs): 30%
- programmed cell death as measured by Cell Death Detection [3]: about 50%
- time at which DNA fragmentation reached a maximal value ([8]; 50 μM etoposide): 8 h
- measured apoptotic DNA fragmentation [8, 9]: an increase in measured apoptotic DNA fragmentation
- DNA fragmentation as determined by ELISA, dose dependence ([8]; 4-8 hrs. treatment): dose-dependent changes
